# Measurements taken from patent publication US4172134A, “Benzo [B]thienopyridines, process for their preparation and therapeutic compositions containing same” (Parcor, priority 1977, dated 1979).
# Tests used:
# [1] = test system: A.D.P. induced blood-platelet aggregation; assay: Determination of A.D.P. induced blood-platelet aggregation; format: in vivo; details: Wistar rats, 100 mg/kg orally, 3 hours after treatment, 10 μM A.D.P. solution, vs reference group, groups of 20 rats; for inhibition at 100 mg/kg: Rattus norvegicus, po, read-out: Percent inhibition of blood-platelet aggregation, A.D.P.
# Method: (§1) 1. Blood-platelet aggregation inhibiting activity
# (§2) Blood is taken from the jugular vein of Wistar rats. From this citrated blood and after centrifugation, is reconstituted a plasma containing 600,000±20,000 blood-platelets per mm3 which will be used in all aggregation determinations.
# (§3) 0.4 ml of plasma is placed in a siliconized tube provided with a magnet bar which is also siliconized. The tube is introduced into an aggregometer connected with an apparatus which records optical density variations. When light transmission has attained a stable value, 0.5 ml of a solution containing 10 μM A.D.P. (Adenosine-Di-Phosphate) are introduced into the tube.
# (§4) Blood-platelet aggregation then produces an increase of light transmission followed by a decrease subsequent to the deaggregation phase.
# (§5) The maximal optical density variation thus determined characterizes the intensity of the aggregation.
# (§6) Different groups of 20 rats each are used, each group being orally administered a test derivative at a dosage of 100 mg/kg.
# [2] = test system: collagen-induced blood-platelet aggregation; assay: Determination of collagen-induced blood-platelet aggregation; format: in vivo; details: Wistar rats, 100 mg/kg orally, 3 hours after treatment, collagen solution (bovine tendon extract), vs reference group, groups of 20 rats; for inhibition at 100 mg/kg: Rattus norvegicus, po, read-out: Percent inhibition of blood-platelet aggregation, Collagen
# Method: as §1, §2, §3, §4, §5
# The A.D.P. solution is substituted with a collagen solution (bovine tendon extract).
# as §6
SMILES,inhibition at 100 mg/kg [1] [%],inhibition at 100 mg/kg [2] [%],"Percent inhibition of blood-platelet aggregation, A.D.P. [1] [%]","Percent inhibition of blood-platelet aggregation, Collagen [2] [%]"
"CC1NCc2c(sc3ccc(Cl)cc23)C1c1ccccc1 (centres unmarked) [Example 1, 8-Chloro-3-methyl-4-phenyl-1,2,3,4-tetrahydro-benzo(b)-thieno[3,2-c]pyridine]",62.1,91.4,,
"CC1NCc2c(sc3ccccc23)C1c1ccccc1 (centres unmarked) [Example 2, 3-Methyl-4-phenyl-1,2,3,4-tetrahydro-benzo(b)-thieno[3,2-c]-pyridine]",61.7,93.8,,
"Clc1ccc2sc3c(c2c1)CNCC3c1ccccc1 (centres unmarked) [Example 3, 8-Chloro-1-phenyl-1,2,3,4-tetrahydro-benzo(b)thieno[3,2-c]-pyridine]",62.9,90.5,,
"c1ccc(C2CNCc3c2sc2ccccc32)cc1 (centres unmarked) [Example 4, 4-Phenyl-1,2,3,4-tetrahydro-benzo(b)thieno[3,2-c]pyridine]",61.5,90.8,,
"CC1C(c2ccccc2)c2sc3ccc(Cl)cc3c2CN1C (centres unmarked) [Example 5, 8-Chloro-2,3-dimethyl-4-phenyl-1,2,3,4-tetrahydro-benzo(b)-thieno[3,2-c]pyridine]",60.8,91.2,,
"CC1C(c2ccccc2)c2sc3ccc(Cl)cc3c2CN1Cc1ccccc1Cl (centres unmarked) [Example 6, 8-Chloro-2-o-chlorobenzyl-3-methyl-4-phenyl-1,2,3,4-tetrahydro-benzo(b)thieno[3,2-c]pyridine]",61.2,94.4,,
"CC1C(c2ccccc2)c2sc3ccc(Cl)cc3c2CN1Cc1ccccc1 (centres unmarked) [Example 7, 2-Benzyl-8-chloro-3-methyl-4-phenyl-1,2,3,4-tetrahydro-benzo(b)thieno[3,2-c]pyridine]",63,95.1,,
"Cc1ccc(N2Cc3c(sc4ccccc34)C(c3ccccc3)C2)cc1 (centres unmarked) [Example 8, 4-Phenyl-2-p.tolyl-1,2,3,4-tetrahydro-benzo(b)-thieno[3,2-c]-pyridine]",,,61.4,90.6
"COc1cccc(CN2Cc3c(sc4ccccc34)C(c3ccccc3)C2C)c1 (centres unmarked) [Example 9, 3-Methyl-P2-m.methoxybenzyl-4-phenyl-1,2,3,4-tetrahydro-benzo(b)thieno[3,2-c]pyridine]",61.8,91.2,,
"COc1cc(CN2Cc3c(sc4ccc(Cl)cc34)C(c3ccccc3)C2C)cc(OC)c1OC (centres unmarked) [Example 10, 8-Chloro-2-(3,4,5-trimethoxy-benzyl)-3-methyl-4-phenyl-1,2,3,4-tetrahydro-benzo(b)thieno[3,2-c]pyridine]",60.2,94.5,,
"O=[N+]([O-])c1ccccc1CN1Cc2c(sc3ccc(Cl)cc23)C(c2ccccc2)C1 (centres unmarked) [Example 11, 8-Chloro-2-o.nitrobenzyl-4-phenyl-1,2,3,4-tetrahydro-benzo(b)thieno[3,2-c]pyridine]",62.5,92.7,,
"N#Cc1ccccc1CN1Cc2c(sc3ccccc23)C(c2ccccc2)C1 (centres unmarked) [Example 12, 2-o.Cyanobenzyl-4-phenyl-1,2,3,4-tetrahydro-benzo(b)thieno-[3,2-c]pyridine]",61.3,92.2,,
"COC(=O)c1ccccc1CN1Cc2c(sc3ccc(Cl)cc23)C(c2ccccc2)C1C (centres unmarked) [Example 13, 8-Chloro-3-methyl-2-o.methoxycarbonylbenzyl-4-phenyl-1,2,3,4-tetrahydro-benzo(b)thieno[3,2-c]pyridine]",62.1,95,,
"CC1C(c2ccccc2)c2sc3ccc(Cl)cc3c2CN1Cc1ccccc1C(=O)O (centres unmarked) [Example 14, 2-o.Carboxybenzyl-8-chloro-3-methyl-4-phenyl-1,2,3,4-tetrahydro-benzo(b)thieno[3,2-c]pyridine]",60.6,93.8,,
"CCCCN1Cc2c(sc3ccc(Cl)cc23)C(c2ccccc2)C1C (centres unmarked) [Example 15, 2-Butyl-8-chloro-3-methyl-4-phenyl-1,2,3,4-tetrahydro-benzo(b)thieno[3,2-c]pyridine]",60.1,92.6,,
"CC1C(c2ccccc2)c2sc3ccccc3c2CN1CCc1ccccc1 (centres unmarked) [Example 16, 3-Methyl-2-phenethyl-4-phenyl-1,2,3,4-tetrahydro-benzo(b)-thieno[3,2-c]pyridine]",62.7,93.2,,
"CC1C(c2ccccc2)c2sc3ccc(Cl)cc3c2CN1Cc1cccnc1 (centres unmarked) [Example 17, 8-Chloro-3-methyl-4-phenyl-2-(3-pyridyl)methyl-1,2,3,4-tetrahydro-benzo(b)thieno[3,2-c]pyridine]",63.5,90.4,,
"CC1C(c2ccccc2)c2sc3ccccc3c2CN1Cc1ccccn1 (centres unmarked) [Example 18, 3-Methyl-4-phenyl-2-(2-pyridyl)methyl-1,2,3,4-tetrahydro-benzo(b)thieno[3,2-c]pyridine]",61.3,91.7,,
"CC1C(c2ccccc2)c2sc3ccc(Cl)cc3c2CN1Cc1ccncc1 (centres unmarked) [Example 19, 8-Chloro-3-methyl-4-phenyl-2-(4-pyridyl)methyl-1,2,3,4,-tetrahydrobenzo(b)thieno[3,2-c]pyridine]",62.4,91.9,,
